Measured values reported in patent US12168008B2, “Oxabicycloheptanes for modulation of immune response” (LIXTE BIOTECHNOLOGY, INC., priority 2016, dated 2024).
Read-outs that look alike come from different tables or passages of the source.

Assays:
[1] = system: mouse B16 melanoma; assay: B16 melanoma tumor-bearing mice (FIG. 12, 17-19); type: in vivo
Experimental: FIG. 12. […] Treatment was started on the same day of tumor implantation. Control—PBS, Low dose—0.16 mg/kg, Medium dose—0.32 mg/kg.
FIG. 17A. CD8+CD44+ effector T cells are increased with PP2A inhibitor LB-100 treatment. Percentage of CD8+CD44+T effector cells population in tumor draining lymph node from B16 tumor bearing mice treated with LB-100 or PBS. 5 mice per group.

[2] = type: in vivo, human; settings: for dose limiting toxicity (reversible increases in serum creatinine or calculated serum creatinine clearance): 3.1 mg/m2
Experimental: Experimental Design: LB-100 was administered intravenously daily for 3 days in 21-day cycles in a 3+3 dose-escalation design. The primary goal was to determine the maximum tolerated dose and recommended phase 2 dose (ClinicalTrials.gov: NCT01837667).
Eligible patients were aged 18 years or older with proven progressive solid tumors who had failed standard treatments. Patients had to have a life expectancy of at least 12 weeks, an ECOG performance status of 0 or 1, and be able to give informed consent. […] They must not have any other uncontrolled systemic disease. Women of childbearing potential had to have a negative serum or urine pregnancy test result.
An open-label, dose-escalation, phase I study was performed to assess the safety, tolerability, and activity of LB-100 administered for 3 consecutive days every 3 weeks. Pharmacokinetic studies were planned at the maximum tolerable dose (MTD). The starting dose, 0.25 mg/m^2, 1/15th of the highest non-severely toxic dose in dogs, and plan of dose escalation was specified by the FDA. The study was approved by the human investigations committee at each study center and is registered at clinicaltrials.gov: NCT01837667.
LB-100 was supplied as a single use solution. Initially, LB-100 was administered in 50 mL of saline over 15 minutes. […] Dose escalation was prohibited within any cohort. Patients were eligible to receive up to 6 cycles of study therapy, unless unacceptable toxicity, disease progression, or inter-current illness required discontinuation. More than 6 cycles were allowed in the absence of progression and toxicity. Because of cardiac and renal toxicity at high doses in animal toxicology studies, patients had extensive monitoring including ECG, MUGA or echocardiogram, cardiac troponins, and BNP prior to every cycle. Blood chemistries, urinalysis, hematologic profile and vital signs were monitored prior to and on day 1, 3, 8, 15, and 22 of each cycle. Laboratory parameters were tabulated by maximum NCI-CTCAE (Version 4.0) severity grade. A safety review committee assessed all clinical data every 2 weeks and approved dose escalation between cohorts.
Doses of LB-100 were escalated in groups of three patients. […] When a potential DLT occurred, three new patients were entered at that dose. If another DLT occurred, three additional patients were treated at the previous non-DLT dose to determine the safety of that level for phase 2 trials.
Response to treatment was assessed using RECIST version 1.1. All patients with measurable disease, who completed 2 cycles of LB-100 and had at least 1 post-baseline tumor assessment, were evaluable for efficacy. Patients receiving any LB-100 were evaluable for safety. The severity of adverse events and laboratory abnormalities is reported according to NCI-CTCAE version 4.0 and coded using Medical Dictionary for Regulatory Activities.

CN1CCN(C(=O)C2C(C(=O)O)[C@H]3CC[C@@H]2O3)CC1 (stereo partly drawn) [LB-100]
B16 melanoma tumor growth ([1]; every two days for 8 doses from day of implantation, 0.16 and 0.32 mg/kg): reduced mouse B16 melanoma tumor growth significantly
CD8+CD44+ effector T cells in tumor draining lymph node ([1]; vs PBS, 5 mice per group): increased
CD44+CD62L− CD4 effector T cells in lymph node ([1]; vs PBS, 5 mice per group): Increased
CD44+CD62L− CD8 effector T cells in lymph node ([1]; vs PBS, 5 mice per group): Increased
DLT during the first 6 dose levels ([2]; 0.25-2.33 mg/m^2): no DLT
HEADACHE, patients n (%) ([2]; Grade 1-2): 3 (10.3%)
HEADACHE, patients n (%) ([2]; Grade 3): 0
HEADACHE, patients n (%) ([2]; Grade 4): 0
ABDOMINAL DISCOMFORT, patients n (%) ([2]; Grade 5): 0
ABDOMINAL DISTENSION, patients n (%) ([2]; Grade 5): 0
ACCELERATED HYPERTENSION, patients n (%) ([2]; Grade 5): 0
ALANINE AMINOTRANSFERASE INCREASED, patients n (%) ([2]; Grade 5): 0
ANAEMIA, patients n (%) ([2]; Grade 5): 0
ARTHRALGIA, patients n (%) ([2]; Grade 5): 0
BLOOD ALKALINE PHOSPHATASE INCREASED, patients n (%) ([2]; Grade 5): 0
BLOOD UREA INCREASED, patients n (%) ([2]; Grade 5): 0
CANDIDIASIS, patients n (%) ([2]; Grade 5): 0
CHEST PAIN, patients n (%) ([2]; Grade 5): 0
CHILLS, patients n (%) ([2]; Grade 5): 0
CONSTIPATION, patients n (%) ([2]; Grade 5): 0
DECREASED APPETITE, patients n (%) ([2]; Grade 5): 0
DERMATITIS ACNEIFORM, patients n (%) ([2]; Grade 5): 0
DIARRHOEA, patients n (%) ([2]; Grade 5): 0
DIZZINESS, patients n (%) ([2]; Grade 5): 0
EJECTION FRACTION DECREASED, patients n (%) ([2]; Grade 5): 0
ELECTROCARDIOGRAM QT PROLONGED, patients n (%) ([2]; Grade 5): 0
GAIT DISTURBANCE, patients n (%) ([2]; Grade 5): 0
GASTROINTESTINAL DISORDER, patients n (%) ([2]; Grade 5): 0
GENERALISED OEDEMA, patients n (%) ([2]; Grade 5): 0
GINGIVAL PAIN, patients n (%) ([2]; Grade 5): 0
HEADACHE, patients n (%) ([2]; Grade 5): 0
HYPERCALCAEMIA, patients n (%) ([2]; Grade 5): 0
HYPERKALAEMIA, patients n (%) ([2]; Grade 5): 0
HYPERNATRAEMIA, patients n (%) ([2]; Grade 5): 0
HYPERTENSION, patients n (%) ([2]; Grade 5): 0
HYPOAESTHESIA, patients n (%) ([2]; Grade 5): 0
HYPOALBUMINAEMLA, patients n (%) ([2]; Grade 5): 0
HYPOKINESIA, patients n (%) ([2]; Grade 5): 0
HYPOTENSION, patients n (%) ([2]; Grade 5): 0
HYPOXIA, patients n (%) ([2]; Grade 5): 0
INSOMNIA, patients n (%) ([2]; Grade 5): 0
MUCOSAL INFLAMMATION, patients n (%) ([2]; Grade 5): 0
MUSCLE TWITCHING, patients n (%) ([2]; Grade 5): 0
MUSCULAR WEAKNESS, patients n (%) ([2]; Grade 5): 0
NAUSEA, patients n (%) ([2]; Grade 5): 0
NEUROPATHY PERIPHERAL, patients n (%) ([2]; Grade 5): 0
NEUTROPENIA, patients n (%) ([2]; Grade 5): 0
OEDEMA PERIPHERAL, patients n (%) ([2]; Grade 5): 0
OEDEMA, patients n (%) ([2]; Grade 5): 0
PAIN OF SKIN, patients n (%) ([2]; Grade 5): 0
PERIPHERAL COLDNESS, patients n (%) ([2]; Grade 5): 0
PERIPHERAL SENSORY NEUROPATHY, patients n (%) ([2]; Grade 5): 0
PLATELET COUNT DECREASED, patients n (%) ([2]; Grade 5): 0
PLEURAL EFFUSION, patients n (%) ([2]; Grade 5): 0
PROTEINURIA, patients n (%) ([2]; Grade 5): 0
PYREXIA, patients n (%) ([2]; Grade 5): 0
SINUS TACHYCARDIA, patients n (%) ([2]; Grade 5): 0
recommended phase 2 dose ([2]; daily for 3 days every 3 weeks, i.v.): 2.33 mg/m2
Probable or possible study drug related Grade 3 adverse events ([2]; human, in vivo): 6 (20.7%) patients (%)
dose limiting toxicity (reversible increases in serum creatinine or calculated serum creatinine clearance) ([2]; human, in vivo): 2/4
symptomatic toxicity ([2]; in vivo): no symptomatic toxicity other than reversible mild to moderate fatigue
toxicities suggestive of autoimmune activity ([2]; in vivo): no patient experienced toxicities suggestive of autoimmune activity
dose limiting toxicity (reversible increases in serum creatinine or calculated serum creatinine clearance) ([2]; in vivo): Two
